Experimental data taken from patent publication US10987349B2, “Antitumor agent and bromodomain inhibitor” (FUJIFILM Corporation, priority 2016, dated 2021).

Key:
[1] = test system: human acute myeloid leukemia cell line MV4-11; assay: Cell growth test (Cell Titer Glo) MV4-11; format: cell-based; details: 3 to 5 days
Source text: (§1) The human undifferentiated thymoma cell line Ty-82 (JCRB), the human acute myeloid leukemia cell lines MV4-11 (ATCC), MOLM-13 (ATCC) and RS4-11 (ATCC), the human lymphoma cell line Raji (JCRB), the human cervical epidermoid carcinoma cell line Hela (JCRB), the human lung adenocarcinoma cell line A549 (ATCC), the human colon cancer cell lines DLD1 (DS Pharma) and HCT116 (DS Pharma), and the human pancreatic cancer cell line MIAPACA-2 (ATCC) were used to carry out a cell growth test.
(§2) Ty-82, MV4-11, MOLM-13, RS4-11, Raji and DLD1 were each seeded in a well plate, in which Roswell Park Memorial Institute (RPMI)-1640 medium supplemented with penicillin/streptomycin and fetal bovine serum (FBS) with a final concentration of 10% was placed. Hela was seeded in Dulbecco's Modified Eagle's medium (DMEM) supplemented with penicillin/streptomycin and FBS with a final concentration of 10%. A549 and MIAPACA-2 were each seeded in a well plate, in which Minimum Essential Medium (MEM) supplemented with penicillin/streptomycin and FBS with a final concentration of 10% was placed. HCT116 was seeded in a well plate, in which McCoy's 5A medium supplemented with penicillin/streptomycin and FBS with a final concentration of 10% was placed.
(§3) Thereafter, a medium containing a test compound serially diluted with DMSO, or DMSO, was added to each well of the plate, in which the cells had been seeded, and the obtained mixture was then cultured under conditions of 37° C. and 5% CO2 for 3 to 5 days. Cell Titer Glo reaction solution (Promega) was added to the culture, and the amount of luminescence was then measured using Envision plate reader (PerkinElmer). Since the amount of luminescence is in proportion to the concentration of adenosine triphosphate (ATP) in cells, the amount of luminescence was used as an indicator of the number of living cells. The growth inhibition percentage of the test compound in each concentration was calculated according to the following equation. Growth inhibition percentage (%)=(amount of luminescence in test compound−added well)/(amount of luminescence in DMSO−added well)×100
(§4) The growth inhibition percentage of the test compound in each concentration was plotted by performing a non-linear regression analysis [(log (inhibitor) vs. response—Variable slope (four parameters)], using Graphpad prism 5, and a 50% growth inhibitory concentration [GI50 (nmol/L)] was then calculated.

BRD3 BD1 = biological target: T1, BRD3 BD1 (Homo sapiens, UniProt Q15059); assay: Binding assay, BRD3 BD1 to acetylated histone H4 Peptide-Biotin (EPIgeneous Binding Domain Kit A); details: test compound at 300 nmol/L; read-out: Binding inhibition percentage BRD3 BD1
T1 construct: BRD2 BD1, BRD3 BD1 and BRD4 BD1 (Cisbio); purchased Cisbio
Procedure: (§5) BRD2 BD1, BRD3 BD1 and BRD4 BD1 (Cisbio), [Lys(Ac)5/8/12/16]-Histone H4(1-25)-GSGSK (Biotin) (hereinafter referred to as “Peptide-Biotin,” AnaSpec), and EPIgeneous (registered trademark) Binding Domain Kit A (Cisbio) were used to carry out an assay. That is to say, per well, 4 μL of BRD2 BD1, BRD3 BD1 or BRD4 BD1, which was adjusted to 20 nmol/L with Diluent buffer; 4 μL of 25 nmol/L Peptide-Biotin; 2 μL of Dilution buffer (Cisbio) containing dimethyl sulfoxide (DMSO) or a test compound that was serially diluted with DMSO; 5 μL of 2.5 nmol/L Streptavidin-d2; and 5 μL of Anti-Gst-Eu+^3+ Cryptate Conjugate 50-fold diluted with Detection Buffer were added to a 384-well plate (Corning).
(§6) The obtained mixture was left at rest at room temperature for 20 hours, and thereafter, the fluoresence intensity at 665 nm and 620 nm was measured using Envision plate reader (Perkin Elmer), so that the inhibition percentage (%) of the test compound against the binding of a bromodomain in a bromodomain-containing protein to Peptide-Biotin was calculated. Binding inhibition percentage (%)=[1−{(fluorescence intensity at 665 nm of test compound−added well)/(fluorescence intensity at 620 nm of test compound−added well)}/{(fluorescence intensity at 665 nm of DMSO−added well)/(fluorescence intensity at 665 nm of DMSO−added well)}]×100
(§7) Moreover, using Graphpad prism 5 (GraphPad software), 50% inhibitory concentration [IC50 (nmol/L)] was calculated according to a non-linear regression analysis (log (inhibitor) vs. response—Variable slope (four parameters)).
(§8) Regarding other test compounds, each compound was diluted with DMSO to a final concentration of 300 nmol/L by the same method as that described above, and the binding inhibition percentage (%) of each test compound at 300 nmol/L against the binding of bromodomain in a bromodomain-containing protein to acetylated histone was calculated.

BRD4 BD1 = biological target: T2, BRD4 BD1 (Homo sapiens, UniProt O60885); assay: Binding assay, BRD4 BD1 to acetylated histone H4 Peptide-Biotin (EPIgeneous Binding Domain Kit A); details: test compound at 300 nmol/L; read-out: Binding inhibition percentage BRD4 BD1
T2 construct: BRD2 BD1, BRD3 BD1 and BRD4 BD1 (Cisbio); purchased Cisbio
Procedure: as §5, §6, §7, §8

BRD3 BD2 = biological target: T3, BRD3 BD2 (Homo sapiens, UniProt Q15059); assay: Binding assay, BRD3 BD2 to acetylated histone H4 Peptide-Biotin (EPIgeneous Binding Domain Kit B); details: test compound at 300 nmol/L; read-out: Binding inhibition percentage BRD3 BD2
T3 construct: BRD2 BD2, BRD3 BD2 and BRD4 BD2 (Cisbio); purchased Cisbio
Procedure: (§9) Moreover, BRD2 BD2, BRD3 BD2 and BRD4 BD2 (Cisbio), Peptide-Biotin (AnaSpec), and EPIgeneous (registered trademark) Binding Domain Kit B (Cisbio) were used to carry out an assay. That is, per well, 4 μL of BRD2 BD2, BRD3 BD2 or BRD4 BD2, which was adjusted to 20 nmol/L with Diluent buffer; 4 μL of 250 nmol/L Peptide-Biotin; 2 μL of Dilution buffer (Cisbio) containing DMSO or a test compound that was serially diluted with DMSO; 5 μL of 25 nmol/L Streptavidin-XL665; 5 μL of Anti-Gst-Eu+^3+ Cryptate Conjugate 50-fold diluted with Detection Buffer were added to a 384-well plate (Corning).
as §6, §7, §8

BRD2 BD1 = biological target: T4, BRD2 BD1 (Homo sapiens, UniProt P25440); assay: Binding assay, BRD2 BD1 to acetylated histone H4 Peptide-Biotin (EPIgeneous Binding Domain Kit A); details: test compound at 300 nmol/L; read-out: Binding inhibition percentage BRD2 BD1
T4 construct: BRD2 BD1, BRD3 BD1 and BRD4 BD1 (Cisbio); purchased Cisbio
Procedure: as §5, §6, §7, §8

BRD4 BD2 = biological target: T5, BRD4 BD2 (Homo sapiens, UniProt O60885); assay: Binding assay, BRD4 BD2 to acetylated histone H4 Peptide-Biotin (EPIgeneous Binding Domain Kit B); details: test compound at 300 nmol/L; read-out: Binding inhibition percentage BRD4 BD2
T5 construct: BRD2 BD2, BRD3 BD2 and BRD4 BD2 (Cisbio); purchased Cisbio
Procedure: as §9, §6, §7, §8

BRD2 BD2 = biological target: T6, BRD2 BD2 (Homo sapiens, UniProt P25440); assay: Binding assay, BRD2 BD2 to acetylated histone H4 Peptide-Biotin (EPIgeneous Binding Domain Kit B); details: test compound at 300 nmol/L; read-out: Binding inhibition percentage BRD2 BD2
T6 construct: BRD2 BD2, BRD3 BD2 and BRD4 BD2 (Cisbio); purchased Cisbio
Procedure: as §9, §6, §7, §8

[2] = test system: human acute myeloid leukemia cell line MOLM-13; assay: Cell growth test (Cell Titer Glo) MOLM-13; format: cell-based; details: 3 to 5 days
Source text: as §1, §2, §3, §4

[3] = test system: human undifferentiated thymoma cell line Ty-82; assay: Cell growth test (Cell Titer Glo) Ty-82; format: cell-based; details: TY82, 3 to 5 days
Source text: as §1, §2, §3, §4

[4] = test system: MV4-11 subcutaneously transplanted tumor; assay: Medicinal effect test, MV4-11-subcutaneously-transplanted cancer-bearing mouse models, oral administration; format: in vivo; details: orally, 30 mg/kg, once per day, 14 days; BALB/c nu/nu mice
Procedure: The human acute myeloid leukemia cell line MV4-11 (ATCC) was suspended in a mixture of RPMI-1640 medium and Matrigel (Corning), and the obtained mixture was then subcutaneously transplanted into 6-week-old female BALB/c nu/nu mice (CLEA Japan, Inc.). After confirming that the average tumor volume exceeded 200 mm^3, a test compound was dissolved in a solvent (a 0.5% methyl cellulose aqueous solution or water containing 1 equivalent of hydrochloric acid), and the obtained solution was then orally administered to the mice at a daily dose of 10 to 30 mg/kg, once per day, for 14 days. As a negative control, a solvent administration group involving administration of a 0.5% methyl cellulose aqueous solution was established. The tumor diameter was measured on a daily basis, and the tumor volume was calculated. The tumor volume was calculated by measuring the major axis and minor axis of the tumor and then applying the following equation. Tumor volume (mm^3)=[major axis (mm)×minor axis (mm)×minor axis (mm)]/2
T/C (%) was calculated from the average tumor volume of each group according to the following equation, and medicinal effects were then evaluated. T/C(%)=[1−(average tumor volume of drug administration group)/(average tumor volume of solvent administration group)]×100%

T4 sequence (P25440 74-180 limits assumed): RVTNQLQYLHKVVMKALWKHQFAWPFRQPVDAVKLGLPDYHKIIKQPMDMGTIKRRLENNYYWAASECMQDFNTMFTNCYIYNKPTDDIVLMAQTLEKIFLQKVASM
T3 sequence (Q15059 306-415 limits assumed): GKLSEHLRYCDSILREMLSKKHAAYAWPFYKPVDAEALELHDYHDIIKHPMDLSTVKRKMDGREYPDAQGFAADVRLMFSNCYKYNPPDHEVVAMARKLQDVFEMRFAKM
T1 sequence (Q15059 34-140 limits assumed): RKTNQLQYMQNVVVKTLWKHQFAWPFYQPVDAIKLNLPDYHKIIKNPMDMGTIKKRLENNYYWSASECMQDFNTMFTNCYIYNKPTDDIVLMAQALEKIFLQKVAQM
T6 sequence (P25440 344-453 limits assumed): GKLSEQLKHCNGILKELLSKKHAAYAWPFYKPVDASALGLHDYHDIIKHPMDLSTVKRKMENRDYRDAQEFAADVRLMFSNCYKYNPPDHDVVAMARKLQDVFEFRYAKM

Work on CCn1c(=O)cc(N2CCOCC2)c2cc(-n3c(-c4ccccc4)cn(C(C)C)c3=O)ccc21 [Example 247, 1-ethyl-4-(morpholin-4-yl)-6-(2-oxo-5-phenyl-3-(propan-2-yl)-2,3-dihydro-1H-imidazol-1-yl)quinolin-2(1H)-one] yielded a GI50 [1] of 16 nM, an inhibition at 0.3 µM (BRD3 BD1) of 93% and an inhibition at 0.3 µM (BRD4 BD1) of 94%. For the same compound, the inhibition at 0.3 µM (BRD3 BD2) was 91%, the inhibition at 0.3 µM (BRD2 BD1) was 83% and the inhibition at 0.3 µM (BRD4 BD2) was 89%. It also gave an inhibition at 0.3 µM (BRD2 BD2) of 90%, a GI50 [2] of 43 nM and a GI50 [3] of 11 nM. The “T/C (%)” value [4] was 33%.

For CCn1c(=O)cc(C2CC2)c2cc(-c3nc(C)nn3-c3ccccc3)ccc21 [Example 252, 4-cyclopropyl-1-ethyl-6-(3-methyl-1-phenyl-1H-1,2,4-triazol-5-yl)quinolin-2(1H)-one], the inhibition at 0.3 µM (BRD3 BD1) was 92%, the inhibition at 0.3 µM (BRD4 BD1) was 94% and the inhibition at 0.3 µM (BRD3 BD2) was 90%. The inhibition at 0.3 µM (BRD2 BD1) was 82%, the inhibition at 0.3 µM (BRD4 BD2) was 88% and the inhibition at 0.3 µM (BRD2 BD2) was 86%.

CCn1c(=O)cc(N2CCOCC2)c2cc(N3C(=O)CC[C@H]3c3ccccc3)ccc21 [Example 253, 1-ethyl-4-(morpholin-4-yl)-6-((5S)-2-oxo-5-phenylpyrrolidin-1-yl)quinolin-2(1H)-one] was tested, and the inhibition at 0.3 µM (BRD3 BD1) was 90%, the inhibition at 0.3 µM (BRD4 BD1) was 92% and the inhibition at 0.3 µM (BRD3 BD2) was 89%. For the same compound, the inhibition at 0.3 µM (BRD2 BD1) was 70%, the inhibition at 0.3 µM (BRD4 BD2) was 85% and the inhibition at 0.3 µM (BRD2 BD2) was 87%.

In the case of CCn1c(=O)cc(C2CC2)c2cc(-n3c(=O)[nH]c(=O)n3-c3ccccc3)ccc21 [Example 248, 1-(4-cyclopropyl-1-ethyl-2-oxo-1,2-dihydroquinolin-6-yl)-2-phenyl-1,2,4-triazolidine-3,5-dione], the inhibition at 0.3 µM (BRD3 BD1) is reported as 95%, the inhibition at 0.3 µM (BRD4 BD1) is reported as 95% and the inhibition at 0.3 µM (BRD3 BD2) is reported as 91%. The inhibition at 0.3 µM (BRD2 BD1) was 93%, the inhibition at 0.3 µM (BRD4 BD2) was 90% and the inhibition at 0.3 µM (BRD2 BD2) was 90%.

Work on CCn1c(=O)cc(C2CCN(C)CC2)c2cc(C(=O)N3CCCc4ccccc43)ccc21 [Example 11, 6-(3,4-dihydroquinolin-1 (2H)-ylcarbonyl)-1-ethyl-4-(1-methylpiperidin-4-yl)quinolin-2(1H)-one] yielded a GI50 [1] of 22 nM, an inhibition at 0.3 µM (BRD3 BD1) of 94% and an inhibition at 0.3 µM (BRD4 BD1) of 94%. The inhibition at 0.3 µM (BRD3 BD2) was 83%, the inhibition at 0.3 µM (BRD2 BD1) was 94% and the inhibition at 0.3 µM (BRD4 BD2) was 83%. For the same compound, the inhibition at 0.3 µM (BRD2 BD2) was 79%, the GI50 [2] was 44 nM and the GI50 [3] was 23 nM.
